Measurements from patent US20250282724A1, “BENZOTRIAZOLE COMPOUND” (DAIICHI SANKYO COMPANY, LIMITED, priority 2022, published 2025).
Each block holds one compound with its values, some of them ahead of it.

Assays:
[1] = system: NQO1 activity in Hepa1c1c7 cells; assay: NAD(P)H: quinone oxidoreductase-1 (NQO1) enzyme induction assay (in vitro); assay type: cell-based, mouse; details: about 48 hr, ratio from the base without the compound; for activity ratio (NQO1 activity ratio): 400 nM of test compound; for fold induction at 0.4 µM: Mus musculus, Hepa-1c1c7, 400 nM of test compound
Experimental: The NQO1 assay was performed based on a previous report (Methods in Enzymology 2004; 382: 243-258). Hepa1c1c7 cells (mouse hepatocyte cell line, ATCC, cat. no. CRL-2026) were cultured in D-MEM medium containing 10% FBS and 1% penicillin/streptomycin (5% CO2, 37° C.), and seeded into 96-well plates (Corning REF. 353072) at 1×10^4 cells/well. A portion of the wells were prepared with medium only for background measurement without seeding cells. The next day, 400 nM of the test compound (0.004% of the final concentration in DMSO) dissolved in DMSO was added thereto, and the wells were incubated for about 48 hr. A well without adding the test compound was prepared for base activity assay in part.
Cell lysate (solution containing 0.8% digitonin, 2 mM EDTA), reaction solution (solution containing 25 mM Tris-HCl, 0.07% albumin, 0.01% Tween-20, 2 U/mL glucose-6-phosphate dehydrogenase, 5 μM flavin adenine dinucleotide, 1 μM glucose-6-phosphate, […] nicotinamide adenine dinucleotide phosphate, 0.03% 3-(4,5-dimethyl-2-thiazolyl)-2,5-diphenyltetrazolium bromide (MTT), and 50 μM menadione), stop solution (solution containing 0.3 mM dicoumarol and 5 mM potassium dihydrogen phosphate, pH 7.4) were prepared. After the medium was removed, 50 μL of the cell lysate was added and incubated at 37° C. for 10 minutes, followed by shaking at room temperature for 10 minutes. 200 μL of reaction solution was added thereto, and allowed to stand for 5 minutes at room temperature. 50 μL of the stop solution was added thereto, and absorbance was measured at 610 nm on a SpectraMax PLUS384 (Molecular devices) or POWERSCAN HT (DS Pharma Biomedical). The test results were analyzed in Excel, and the NQO1 activity upon addition of 400 nM of test compound was calculated as a ratio from the base without the compound.
The results of each test compound in this test are shown in the following Table 2 (A:5<NQO1 activity ratio, B:3<NQO1 activity ratio≤5).

[2] = Measurement test of plasma drug concentration after oral administration in rats; assay type: in vivo, rat; details: 10 mg/2 mL/kg oral, suspended in 0.5% methylcellulose, male SD rats
Experimental: 10 mg/2 mL/kg of the test compound suspended in 0.5% methylcellulose solution were force-fed to Male SD rats (7 weeks old, Japan SLC). Blood was collected from the jugular vein using a syringe with heparin at 0.5, 1, 2, 4, 6, and 24 hr after administration. After blood collection, to 20 μL of centrifuged plasma was added an equal volume of acetonitrile followed by 200 μL of internal standard (IS) solution. After agitation, all the supernatant after centrifugation was filtered, and the collected filtrate was used as the assay sample. Equal volumes of the test compound solution prepared in acetonitrile were added to blank plasma, and the samples processed in the same manner as above were used as samples for the calibration curve. The prepared samples were measured using LC/MS/MS, and the area under the blood concentration-time curve (AUC) was calculated from the compound concentration in plasma.

SMILES: CC[C@@H]1CN(Cc2cc([C@@H](CC(=O)O)c3ccc4c(nnn4C)c3C)cc3c2CCC3)S(=O)(=O)c2cccc(Cl)c2O1 [Example 48, (3R)-3-(7-{[(4R)-6-Chloro-4-ethyl-1,1-dioxido-3,4-dihydro-2H-5,1,2-benzoxathiazepin-2-yl]methyl}-2,3-dihydro-1H-inden-5-yl)-3-(1,4-dimethyl-1H-benzotriazol-5-yl)propanoic acid]
activity ratio (NQO1 activity ratio) [1]: A (5<NQO1 activity ratio)

SMILES: CC[C@@H]1CN(Cc2cc([C@H](CC(=O)O)c3cc(Cl)c4c(nnn4C)c3C)cc3c2CCC3)S(=O)(=O)c2cc(Cl)cnc2O1 [Example 96, (3S)-3-(7-Chloro-1,4-dimethyl-1H-benzotriazol-5-yl)-3-(7-{[(4R)-8-chloro-4-ethyl-1,1-dioxido-3,4-dihydro-2H-pyrido[2,3-b][1,4,5]oxathiazepin-2-yl]methyl}-2,3-dihydro-1H-inden-5-yl)propanoic acid]
activity ratio (NQO1 activity ratio) [1]: A (5<NQO1 activity ratio)

SMILES: Cc1c([C@H](CC(=O)O)c2cc(CN3C[C@@H](C4CC4)Oc4ccc(O)nc4C3C)c3sccc3c2)cnc2c1nnn2C (single isomer, unassigned) [Example 85, (3R)-3-(7-{[(2R,5R*)-2-Cyclopropyl-7-hydroxy-5-methyl-2,3-dihydropyrido[2,3-f][1,4]oxazepin-4(5H)-yl]methyl}-1-benzothiophen-5-yl)-3-(3,7-dimethyl-3H-[1,2,3]triazolo[4,5-b]pyridin-6-yl)propanoic acid]
activity ratio (NQO1 activity ratio) [1]: A (5<NQO1 activity ratio)

SMILES: Cc1c(C(CC(=O)O)c2cc3c(c(CN4CC5(CCC5)Oc5ncccc5S4(=O)=O)c2)CCC3)ccc2c1nnn2C (centres unmarked) [Example 35, 3-(1,4-Dimethyl-1H-benzotriazol-5-yl)-3-{7-[(1′,1′-dioxido-spiro[cyclobutane-1,4′-pyrido[2,3-b][1,4,5]oxathiazepine]-2′(3′H)-yl)methyl]-2,3-dihydro-1H-inden-5-yl}propanoic acid]
fold induction at 0.4 µM [1]: > 5

SMILES: CC[C@@H]1CN(Cc2cc([C@@H](CC(=O)O)c3cc(Cl)c4c(nnn4C)c3C)cc3c2CCC3)S(=O)(=O)c2cc(Cl)cnc2O1 [Example 97, (3R)-3-(7-Chloro-1,4-dimethyl-1H-benzotriazol-5-yl)-3-(7-{[(4R)-8-chloro-4-ethyl-1,1-dioxido-3,4-dihydro-2H-pyrido[2,3-b][1,4,5]oxathiazepin-2-yl]methyl}-2,3-dihydro-1H-inden-5-yl)propanoic acid]
activity ratio (NQO1 activity ratio) [1]: A (5<NQO1 activity ratio)

SMILES: CC[C@@H]1CN(Cc2cc([C@H](CC(=O)O)c3ccc4c(nnn4C)c3C)cc3ccsc23)[C@@H](C)c2ncccc2O1 [Example 62, (3S)-3-(1,4-Dimethyl-1H-benzotriazol-5-yl)-3-(7-{[(2R,5S)-2-ethyl-5-methyl-2,3-dihydropyrido[2,3-f][1,4]oxazepin-4(5H)-yl]methyl}-1-benzothiophen-5-yl)propanoic acid]
activity ratio (NQO1 activity ratio) [1]: A (5<NQO1 activity ratio)

SMILES: Cc1c(C(CC(=O)O)c2cc3c(c(CN4CC5(COC5)Oc5ncccc5S4(=O)=O)c2)CCC3)ccc2c1nnn2C (centres unmarked) [Example 36, 3-(1,4-Dimethyl-1H-benzotriazol-5-yl)-3-{7-[(1′,1′-dioxido-spiro[oxetane-3,4′-pyrido[2,3-b][1,4,5]oxathiazepine]-2′ (3′H)-yl)methyl]-2,3-dihydro-1H-inden-5-yl}propanoic acid]
fold induction at 0.4 µM [1]: > 5

maximam plasma concentration [2]: 0.009 µM
SMILES: CC[C@@H]1CN(Cc2cc([C@H](CC(=O)O)c3ccc4c(nnn4C)c3C)cc3ccsc23)S(=O)(=O)c2cc(Cl)cnc2O1 [Example 7, (3S)-3-(7-{[(4R)-8-Chloro-4-ethyl-1,1-dioxido-3,4-dihydro-2H-pyrido[2,3-b][1,4,5]oxathiazepin-2-yl]methyl}-1-benzothiophen-5-yl)-3-(1,4-dimethyl-1H-benzotriazol-5-yl)propanoic acid]

maximam plasma concentration [2]: 0.029 µM
SMILES: CC[C@@H]1CN(Cc2cc([C@H](CC(=O)O)c3ccc4c(nnn4C)c3C)cc3c2CCC3)S(=O)(=O)c2cc(Cl)cnc2O1 [Example 4, (3S)-3-(7-{[(4R)-8-Chloro-4-ethyl-1,1-dioxido-3,4-dihydro-2H-pyrido[2,3-b][1,4,5]oxathiazepin-2-yl]methyl}-2,3-dihydro-1H-inden-5-yl)-3-(1,4-dimethyl-1H-benzotriazol-5-yl)propanoic acid]

maximam plasma concentration [2]: 0.005 µM
SMILES: CC[C@@H]1CN(Cc2cc([C@@H](CC(=O)O)c3ccc4c(nnn4C)c3C)cc3ccsc23)S(=O)(=O)c2cc(Cl)cnc2O1 [Example 8, (3R)-3-(7-{[(4R)-8-Chloro-4-ethyl-1,1-dioxido-3,4-dihydro-2H-pyrido[2,3-b][1,4,5]oxathiazepin-2-yl]methyl}-1-benzothiophen-5-yl)-3-(1,4-dimethyl-1H-benzotriazol-5-yl)propanoic acid]

maximam plasma concentration [2]: 0.006 µM
SMILES: CC[C@@H]1CN(Cc2cc([C@@H](CC(=O)O)c3ccc4c(nnn4C)c3C)cc3c2CCC3)S(=O)(=O)c2cc(Cl)cnc2O1 [Example 5, (3R)-3-(7-{[(4R)-8-Chloro-4-ethyl-1,1-dioxido-3,4-dihydro-2H-pyrido[2,3-b][1,4,5]oxathiazepin-2-yl]methyl}-2,3-dihydro-1H-inden-5-yl)-3-(1,4-dimethyl-1H-benzotriazol-5-yl)propanoic acid]

SMILES: Cc1c(C(CC(=O)O)c2cc3c(c(CN4CC5(CCOCC5)Oc5ncccc5S4(=O)=O)c2)CCC3)ccc2c1nnn2C (centres unmarked) [Example 33, 3-(1,4-Dimethyl-1H-benzotriazol-5-yl)-3-{7-[(1′,1′-dioxido-2,3,5,6-tetrahydrospiro[pyran-4,4′-pyrido[2,3-b][1,4,5]oxathiazepine]-2′ (3′H)-yl)methyl]-2,3-dihydro-1H-inden-5-yl}propanoic acid]
fold induction at 0.4 µM [1]: > 5

SMILES: CC[C@@H]1CN(Cc2cc(C(CC(=O)O)c3ccc4c(nnn4C)c3C)cc3c2CCC3)S(=O)(=O)c2ccc(Cl)cc2O1 (stereo partly drawn) [Example 15, 3-(7-{[(4R)-7-Chloro-4-ethyl-1,1-dioxido-3,4-dihydro-2H-5,1,2-benzoxathiazepin-2-yl]methyl}-2,3-dihydro-1H-inden-5-yl)-3-(1,4-dimethyl-1H-benzotriazol-5-yl)propanoic acid]
fold induction at 0.4 µM [1]: > 5

SMILES: CC[C@@H]1CN(Cc2cc([C@@H](CC(=O)O)c3ccc4c(nnn4C)c3C)cc3ccsc23)C(C)c2nc(O)ccc2O1 (single isomer, unassigned) [Example 78, (3R)-3-(1,4-Dimethyl-1H-benzotriazol-5-yl)-3-(7-{[(2R,5S*)-2-ethyl-7-hydroxy-5-methyl-2,3-dihydropyrido[2,3-f][1,4]oxazepin-4(5H)-yl]methyl}-1-benzothiophen-5-yl)propanoic acid]
activity ratio (NQO1 activity ratio) [1]: A (5<NQO1 activity ratio)
